The record followed here is patent US12643882B2, “Inhibitors of human respiratory syncytial virus and metapneumovirus” (priority 2022, dated 2026).

Like-named read-outs stand apart in the source and are kept apart here.

The test system of one test is RSV-A2-GFP virus. In words: microbe, parasite or virus in culture. Format: cell-based, Human Respiratory Syncytial Virus. The essentials: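 Assay-ready frozen Calu-1 cells at 20,000 cells/mL were infected with recombinant RSV-A2-GFP (MOI 1.2) in DMEM with 2% FBS. Cells were exposed to 10-point 3-fold compound dilutions for 96 h at 37° C. GFP-positive cells were counted by imaging, with same-well CellTiter-Glo for cytotoxicity, and IC50 and CC50 came from 4-parameter logistic fits.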

Another test relates to hMPV-GFP virus. In words: microbe, parasite or virus in culture. It is filed as cell-based, human metapneumovirus. The essentials:
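VERO cells infected with GFP-expressing hMPV at MOI 1.25 were incubated 48 h at 37 °C with compound in 10-point 3-fold dilutions (typically 40,300–2 nM final). GFP-positive cells were counted by imaging. Same-well CellTiter-Glo gave cytotoxicity, and IC50/CC50 came from 4-parameter logistic fits.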

[1] abbreviates: human respiratory syncytial virus, Calu-1, 96 h, read-out: RSV EC50, Calu-1 cells infected with RSV-A2-GFP, 96 hrs, GFP-expressing cells counted.
Where [2] appears, read: human metapneumovirus, Vero, 48 h, read-out: hMPV EC50, VERO cells infected with hMPV-GFP, 48 hrs, GFP-expressing cells counted.
Where [3] appears, read: Calu-1 cells infected with RSV-A2-GFP, 96 hrs, GFP-expressing cells counted, read-out: RSV EC50.
Setting [4] is: VERO cells infected with hMPV-GFP, 48 hrs, GFP-expressing cells counted, read-out: hMPV EC50.

On to `Cc1nc(-c2ncccn2)sc1C(=O)N1C[C@@H]2[C@H](C1)[C@H]2Oc1cc(C(C)(C)N)cc(Cc2ccc(F)cc2)n1` [Example 126, ((1R,5S,6s)-6-((4-(2-aminopropan-2-yl)-6-(4-fluorobenzyl)pyridin-2-yl)oxy)-3-azabicyclo[3.1.0]hexan-3-yl)(4-methyl-2-(pyrimidin-2-yl)thiazol-5-yl)methanone], for which the results for the EC50 with RSV-A2-GFP virus (setting [1]) and in the test on hMPV-GFP virus (setting [2]) were < 0.01 µM and > 0.1 µM, respectively.
Regarding `Cc1nn(-c2ncccn2)cc1C(=O)N1C[C@@H]2[C@H](C1)[C@H]2Oc1cc(C(C)(C)N)cc(N2CCC(C)(C)CC2C)n1` (stereo partly drawn) [Example 127A, ent-((1R,5S,6s)-6-((4-(2-aminopropan-2-yl)-6-(2,4,4-trimethylpiperidin-1-yl)pyridin-2-yl)oxy)-3-azabicyclo[3.1.0]hexan-3-yl)(3-methyl-1-(pyrimidin-2-yl)-1H-pyrazol-4-yl)methanone], the EC50 was < 0.01 µM in the test with RSV-A2-GFP virus (setting [3]) and > 0.1 µM in the test on hMPV-GFP virus (setting [4]).
For `Cc1nn(-c2ncccn2)cc1C(=O)N1C[C@@H]2[C@H](C1)[C@H]2Oc1cc(C(C)(C)N)cc(NC(C)C2CCCC2)n1` (stereo partly drawn) [Example 128A, ent-((1R,5S,6s)-6-((4-(2-aminopropan-2-yl)-6-((1-cyclopentylethyl)amino)pyridin-2-yl)oxy)-3-azabicyclo[3.1.0]hexan-3-yl)(3-methyl-1-(pyrimidin-2-yl)-1H-pyrazol-4-yl)methanone], in that order: < 0.01 µM and > 0.1 µM.
Regarding `Cc1nn(-c2ncccn2)cc1C(=O)N1C[C@@H]2[C@H](C1)[C@H]2Oc1cc(C(C)(C)N)cc(N2CCC(C(F)(F)F)CC2C)n1` (stereo partly drawn) [Example 129A, ent-((1R,5S,6s)-6-((4-(2-aminopropan-2-yl)-6-(2-methyl-4-(trifluoromethyl)piperidin-1-yl)pyridin-2-yl)oxy)-3-azabicyclo[3.1.0]hexan-3-yl)(3-methyl-1-(pyrimidin-2-yl)-1H-pyrazol-4-yl)methanone], the EC50 with RSV-A2-GFP virus (setting [3]) was < 0.01 µM; with hMPV-GFP virus (setting [4]) it was > 0.1 µM.
Turning to `CC(C)(N)c1cc(O[C@H]2[C@@H]3CN(C(=O)c4cn(-c5ncccn5)nc4Cn4nccn4)C[C@@H]32)nc(-c2ccc(F)cc2)c1` [Example 130, (3-((2H-1,2,3-triazol-2-yl)methyl)-1-(pyrimidin-2-yl)-1H-pyrazol-4-yl)((1R,5S,6s)-6-((4-(2-aminopropan-2-yl)-6-(4-fluorophenyl)pyridin-2-yl)oxy)-3-azabicyclo[3.1.0]hexan-3-yl)methanone], the EC50 was < 0.01 µM in the test on RSV-A2-GFP virus (setting [1]) and > 0.1 µM in the test on hMPV-GFP virus (setting [2]).
For `CC(C)(N)c1cc(O[C@H]2[C@@H]3CN(C(=O)c4cn(-c5ncccn5)nc4CCF)C[C@@H]32)nc(-c2ccc(F)cc2)c1` [Example 131, ((1R,5S,6s)-6-((4-(2-aminopropan-2-yl)-6-(4-fluorophenyl)pyridin-2-yl)oxy)-3-azabicyclo[3.1.0]hexan-3-yl)(3-(2-fluoroethyl)-1-(pyrimidin-2-yl)-1H-pyrazol-4-yl)methanone], in that order: < 0.01 µM and > 0.1 µM.
Taken in the same sequence, the figures for `CC(C)(N)c1cc(O[C@H]2[C@@H]3CN(C(=O)c4cn(-c5ncccn5)nc4CC(F)F)C[C@@H]32)nc(-c2ccc(F)cc2)c1` [Example 132, ((1R,5S,6s)-6-((4-(2-aminopropan-2-yl)-6-(4-fluorophenyl)pyridin-2-yl)oxy)-3-azabicyclo[3.1.0]hexan-3-yl)(3-(2,2-difluoroethyl)-1-(pyrimidin-2-yl)-1H-pyrazol-4-yl)methanone] were < 0.01 µM and > 0.1 µM.
